“And” between values parts separate entries of the source, which are not always exact repeats. Equal entries are not always repeated.
Experiments:
Format in all cases: biochemical
TMPRSS2 = TMPRSS2 (Homo sapiens, UniProt O15393); assay: PS-SCL / HyCoSuL substrate specificity screening, TMPRSS2; conditions: for P2 Position Substrate Activity for TMPRSS2 (percent substrate cleavage/proteolysis): residue fixed at P2 position of substrate library; for P3 Position Various Amino Acids Substrate Activity, TMPRSS2 (percent substrate cleavage/proteolysis) / P3 Position Substrate Activity for TMPRSS2 (percent substrate cleavage/proteolysis): residue fixed at P3 position of substrate library
Sequence of TMPRSS2 (O15393 whole entry): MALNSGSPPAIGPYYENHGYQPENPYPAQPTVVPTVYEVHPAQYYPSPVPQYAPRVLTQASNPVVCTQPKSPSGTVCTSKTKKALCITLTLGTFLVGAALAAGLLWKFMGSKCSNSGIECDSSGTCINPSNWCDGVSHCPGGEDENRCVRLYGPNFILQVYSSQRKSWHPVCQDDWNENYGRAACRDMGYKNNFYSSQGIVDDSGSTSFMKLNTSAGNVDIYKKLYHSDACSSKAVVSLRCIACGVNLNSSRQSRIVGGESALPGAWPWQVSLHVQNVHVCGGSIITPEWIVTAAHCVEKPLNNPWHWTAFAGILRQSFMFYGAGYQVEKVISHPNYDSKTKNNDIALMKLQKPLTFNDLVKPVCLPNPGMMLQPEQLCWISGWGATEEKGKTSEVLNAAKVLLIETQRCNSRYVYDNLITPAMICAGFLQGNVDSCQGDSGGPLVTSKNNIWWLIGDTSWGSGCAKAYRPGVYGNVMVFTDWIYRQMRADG

HGFA = target: T1, HGFA (Homo sapiens, UniProt Q04756); assay: HyCoSuL P4-P2 substrate specificity screening, HGFA; conditions: for P2 Position Substrate Activity for HGFA (percent substrate cleavage/proteolysis): residue fixed at P2 position; for P3 Position Various Amino Acids Substrate Activity, HGFA (percent substrate cleavage/proteolysis): residue fixed at P3 position of substrate library; for P4 Position Various Amino Acids Substrate Activity, HGFA (percent substrate proteolysis/cleavage): residue fixed at P4 position of substrate library; for P3 Position Substrate Activity for HGFA (percent substrate cleavage/proteolysis): residue fixed at P3 position
T1 sequence (Q04756 373-655): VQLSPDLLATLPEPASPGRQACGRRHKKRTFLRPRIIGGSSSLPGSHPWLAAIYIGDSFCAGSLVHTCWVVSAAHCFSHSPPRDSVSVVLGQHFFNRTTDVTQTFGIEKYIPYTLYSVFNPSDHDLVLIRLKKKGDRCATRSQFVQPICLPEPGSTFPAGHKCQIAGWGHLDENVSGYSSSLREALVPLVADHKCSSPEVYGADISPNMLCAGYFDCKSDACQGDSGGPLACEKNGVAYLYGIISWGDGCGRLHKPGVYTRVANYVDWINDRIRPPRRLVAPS

matriptase = target: T2, matriptase (Homo sapiens, UniProt Q9Y5Y6); assay: HyCoSuL P4-P2 substrate specificity screening, matriptase; conditions: for P2 Position Substrate Activity for matriptase (percent substrate cleavage/proteolysis): residue fixed at P2 position; for P3 Position Various Amino Acids Substrate Activity, matriptase (percent substrate cleavage/proteolysis): residue fixed at P3 position of substrate library; for P4 Position Various Amino Acids Substrate Activity, matriptase (percent substrate proteolysis/cleavage): residue fixed at P4 position of substrate library; for P3 Position Substrate Activity for matriptase (percent substrate cleavage/proteolysis): residue fixed at P3 position
T2 sequence (Q9Y5Y6 1-855): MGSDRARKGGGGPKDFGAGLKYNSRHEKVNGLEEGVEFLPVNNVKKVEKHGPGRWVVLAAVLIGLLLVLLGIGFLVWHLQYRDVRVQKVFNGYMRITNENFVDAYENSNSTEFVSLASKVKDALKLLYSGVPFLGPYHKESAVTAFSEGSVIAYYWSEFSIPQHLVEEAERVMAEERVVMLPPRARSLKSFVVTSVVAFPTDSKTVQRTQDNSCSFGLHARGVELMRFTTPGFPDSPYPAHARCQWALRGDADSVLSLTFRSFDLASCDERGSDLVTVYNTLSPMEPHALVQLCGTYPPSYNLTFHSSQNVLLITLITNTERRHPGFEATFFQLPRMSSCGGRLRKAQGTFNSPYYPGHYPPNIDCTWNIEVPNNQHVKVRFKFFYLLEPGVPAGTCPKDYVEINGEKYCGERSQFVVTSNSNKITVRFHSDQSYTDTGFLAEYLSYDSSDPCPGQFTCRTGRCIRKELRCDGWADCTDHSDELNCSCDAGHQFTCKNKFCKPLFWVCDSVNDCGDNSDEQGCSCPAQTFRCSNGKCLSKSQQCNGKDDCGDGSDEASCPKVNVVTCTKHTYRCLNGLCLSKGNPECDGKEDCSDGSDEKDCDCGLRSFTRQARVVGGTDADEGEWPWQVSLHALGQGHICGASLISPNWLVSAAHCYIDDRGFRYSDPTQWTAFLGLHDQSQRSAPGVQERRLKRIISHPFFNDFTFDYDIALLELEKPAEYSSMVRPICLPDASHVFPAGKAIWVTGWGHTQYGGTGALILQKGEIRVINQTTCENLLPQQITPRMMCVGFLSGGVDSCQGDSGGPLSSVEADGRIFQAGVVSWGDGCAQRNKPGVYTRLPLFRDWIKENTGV

hepsin = target: T3, hepsin (Homo sapiens, UniProt P05981); assay: HyCoSuL P4-P2 substrate specificity screening, hepsin; conditions: for P2 Position Substrate Activity for hepsin (percent substrate cleavage/proteolysis): residue fixed at P2 position; for P3 Position Various Amino Acids Substrate Activity, hepsin (percent substrate cleavage/proteolysis): residue fixed at P3 position of substrate library; for P4 Position Various Amino Acids Substrate Activity, hepsin (percent substrate proteolysis/cleavage): residue fixed at P4 position of substrate library; for P3 Position Substrate Activity for hepsin (percent substrate cleavage/proteolysis): residue fixed at P3 position
T3 construct: purchased R&D Systems 4776-SE-010
T3 sequence (P05981 163-417 limits assumed): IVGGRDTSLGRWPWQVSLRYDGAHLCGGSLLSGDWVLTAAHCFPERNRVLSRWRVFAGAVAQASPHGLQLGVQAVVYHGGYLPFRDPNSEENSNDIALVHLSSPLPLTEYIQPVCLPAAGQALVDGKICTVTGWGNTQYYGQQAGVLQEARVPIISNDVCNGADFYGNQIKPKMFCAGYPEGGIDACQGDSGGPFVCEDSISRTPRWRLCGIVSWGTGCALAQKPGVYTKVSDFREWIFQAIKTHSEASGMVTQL
T3 sequence (P05981 1-162 partner limits assumed): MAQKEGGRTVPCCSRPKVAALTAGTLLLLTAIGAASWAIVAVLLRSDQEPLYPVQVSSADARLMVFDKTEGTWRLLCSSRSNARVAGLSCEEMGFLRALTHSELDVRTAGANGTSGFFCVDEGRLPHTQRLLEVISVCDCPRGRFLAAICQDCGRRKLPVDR

[1] = best recognized amino acid set to 100%
[2] = residue fixed at P4 position of substrate library
[3] = P1-Arg HyCoSuL, 100 μM, best recognized amino acid set to 100%
[4] = residue fixed at P4 position, P1-Arg HyCoSuL, 100 μM, best recognized amino acid set to 100%

Substance | P2 Position Substrate Activity for TMPRSS2 (percent substrate cleavage/proteolysis) (TMPRSS2; [1]) [%] | P3 Position Various Amino Acids Substrate Activity, TMPRSS2 (percent substrate cleavage/proteolysis) (TMPRSS2) [%] | P4 Position Various Amino Acids Substrate Activity, TMPRSS2 (percent substrate proteolysis/cleavage) (TMPRSS2; [2]) [%] | P2 Position Substrate Activity for HGFA (percent substrate cleavage/proteolysis) (HGFA; [3]) [%] | P3 Position Various Amino Acids Substrate Activity, HGFA (percent substrate cleavage/proteolysis) (HGFA) [%] | P4 Position Various Amino Acids Substrate Activity, HGFA (percent substrate proteolysis/cleavage) (HGFA) [%] | P2 Position Substrate Activity for matriptase (percent substrate cleavage/proteolysis) (matriptase; [3]) [%] | P3 Position Various Amino Acids Substrate Activity, matriptase (percent substrate cleavage/proteolysis) (matriptase) [%] | P4 Position Various Amino Acids Substrate Activity, matriptase (percent substrate proteolysis/cleavage) (matriptase) [%] | P2 Position Substrate Activity for hepsin (percent substrate cleavage/proteolysis) (hepsin; [3]) [%] | P3 Position Various Amino Acids Substrate Activity, hepsin (percent substrate cleavage/proteolysis) (hepsin) [%] | P4 Position Various Amino Acids Substrate Activity, hepsin (percent substrate proteolysis/cleavage) (hepsin) [%] | P3 Position Substrate Activity for TMPRSS2 (percent substrate cleavage/proteolysis) (TMPRSS2; [1]) [%] | P3 Position Substrate Activity for HGFA (percent substrate cleavage/proteolysis) (HGFA; [3]) [%] | P3 Position Substrate Activity for matriptase (percent substrate cleavage/proteolysis) (matriptase; [3]) | P3 Position Substrate Activity for hepsin (percent substrate cleavage/proteolysis) (hepsin; [3]) [%] | P4 Position Substrate Activity for TMPRSS2 (percent substrate cleavage/proteolysis) (TMPRSS2; residue fixed at P4 position of substrate library, best recognized amino acid set to 100%) [%] | P4 Position Substrate Activity for HGFA (percent substrate cleavage/proteolysis) (HGFA; [4]) [%] | P4 Position Substrate Activity for matriptase (percent substrate cleavage/proteolysis) (matriptase; [4]) [%] | P4 Position Substrate Activity for hepsin (percent substrate cleavage/proteolysis) (hepsin; [4]) [%]
D-Ser | 0.00 | 0.00 | 31.72 | 0.00 | 10.86 | 7.94 | 0 | 2 | 10 | 11.55 | 54.84 | 21.84 |  |  |  |  |  |  |  | 
D-Thr | 0.00 | 0.00 | 22.57 | 0.00 | 6.45 | 8.61 | 0 | 2 | 9 | 0.00 | 36.69 | 25.74 |  |  |  |  |  |  |  | 
L-Ala | 25.14 | 31.84 | 26.30 | 2.37 | 8.97 | 6.68 | 28 | 34 | 31 | 17.85 | 28.07 | 41.30 |  |  |  |  |  |  |  | 
L-Asn | 9.49 | 19.47 | 21.89 | 4.79 | 6.12 | 8.20 | 12 | 14 | 10 | 63.72 | 24.47 | 25.25 |  |  |  |  |  |  |  | 
L-Asp | 9.72 | 25.70 | 7.77 | 1.21 | 2.81 | 1.90 | 1 | 2 | 1 | 0.33 | 3.89 | 0.22 |  |  |  |  |  |  |  | 

Results, then the substance that gave them:

P2 Position Substrate Activity for TMPRSS2 (percent substrate cleavage/proteolysis) (TMPRSS2; [1]) [%] | P3 Position Various Amino Acids Substrate Activity, TMPRSS2 (percent substrate cleavage/proteolysis) (TMPRSS2) [%] | P4 Position Various Amino Acids Substrate Activity, TMPRSS2 (percent substrate proteolysis/cleavage) (TMPRSS2; [2]) [%] | P2 Position Substrate Activity for HGFA (percent substrate cleavage/proteolysis) (HGFA; [3]) [%] | P3 Position Various Amino Acids Substrate Activity, HGFA (percent substrate cleavage/proteolysis) (HGFA) [%] | P4 Position Various Amino Acids Substrate Activity, HGFA (percent substrate proteolysis/cleavage) (HGFA) [%] | P2 Position Substrate Activity for matriptase (percent substrate cleavage/proteolysis) (matriptase; [3]) [%] | P3 Position Various Amino Acids Substrate Activity, matriptase (percent substrate cleavage/proteolysis) (matriptase) [%] | P4 Position Various Amino Acids Substrate Activity, matriptase (percent substrate proteolysis/cleavage) (matriptase) [%] | P2 Position Substrate Activity for hepsin (percent substrate cleavage/proteolysis) (hepsin; [3]) [%] | P3 Position Various Amino Acids Substrate Activity, hepsin (percent substrate cleavage/proteolysis) (hepsin) [%] | P4 Position Various Amino Acids Substrate Activity, hepsin (percent substrate proteolysis/cleavage) (hepsin) [%] | P3 Position Substrate Activity for TMPRSS2 (percent substrate cleavage/proteolysis) (TMPRSS2; [1]) [%] | P3 Position Substrate Activity for HGFA (percent substrate cleavage/proteolysis) (HGFA; [3]) [%] | P3 Position Substrate Activity for matriptase (percent substrate cleavage/proteolysis) (matriptase; [3]) | P3 Position Substrate Activity for hepsin (percent substrate cleavage/proteolysis) (hepsin; [3]) [%] | P4 Position Substrate Activity for TMPRSS2 (percent substrate cleavage/proteolysis) (TMPRSS2; residue fixed at P4 position of substrate library, best recognized amino acid set to 100%) [%] | P4 Position Substrate Activity for HGFA (percent substrate cleavage/proteolysis) (HGFA; [4]) [%] | P4 Position Substrate Activity for matriptase (percent substrate cleavage/proteolysis) (matriptase; [4]) [%] | P4 Position Substrate Activity for hepsin (percent substrate cleavage/proteolysis) (hepsin; [4]) [%] | Substance
0.00 |  | 22.02 | 0.00 |  | 7.65 | 0 | 5 | 5 | 0.00 |  | 1.48 | 31.94 | 87.59 | 76.43% | 24.90 |  |  |  |  | D-Trp
0.00 | 4.49 | 33.78 | 0.00 | 17.32 | 10.09 | 0 | 6 | 7 | 0.00 | 29.94 | 12.66 |  |  |  |  |  |  |  |  | D-Tyr
0.00 | 0.00 | 17.70 | 0.00 | 5.76 | 8.25 | 0 | 1 | 7 | 0.00 | 27.04 | 22.58 |  |  |  |  |  |  |  |  | D-Val
5.65 |  |  | 2.08 |  |  | 0 | 70 | 100 | 57.23 |  |  | 27.44 | 43.98 | 62.39% and 70.35% | 70.75 | 27.99 | 23.62 | 100.00 | 80.32 | L-Arg

Reference: patent US20250171495A1, “MUTLI-TARGETED SERINE PROTEASE INHIBITORS FOR TREATMENT OF CANCER AND VIRAL INFECTION” (Washington University, priority 2023, published 2025)
